These results are taken from patent publication US7468369B2, “Sulfonyl pyrrolidines, method for producing the same and their use as drugs” (Sanofi-Aventis, priority 2005, dated 2008).

SMILES strings stand for the structures. Structures can show the parent of a compound that is named as a salt.

This experiment concerns human ABCA1 promoter. Briefly: ABCA1 promoter test (luciferase reporter in stably transfected THP1 cell line). The experiment is classed as cell-based. The note with it: Homo sapiens, THP-1; ABCA1 reporter cell line (THP1, PMA-differentiated), 24 h incubation, luciferase chemiluminescence; read-out: E50 ABCA1. As to the method: The potency of substances which activate expression of the human ABCA1 gene via its promoter is analyzed by using a stably transfected THP1 cell line (human monocyte cell line) which is referred to herein as ABCA1 reporter cell line. It contains a fragment, 3.2 kb in size and stably integrated into the genome, of the human ABCA1 promoter in front of a luciferase reporter element. Expression of the luciferase reporter gene is only low without addition of an ABCA1 expression activator. The substances stimulating ABCA1 expression bring about, via activation of the ABCA1 promoter, an enhanced expression of the luciferase reporter gene. The luciferase which is formed can be detected via an appropriate substrate by means of chemiluminescence.
Construction of the Cell Line
The ABCA1 reporter line was prepared as follows: firstly the neomycin resistance gene (Acc. No.: AJ000156) was introduced into the luciferase reporter plasmid pLG3basic (#1751, Promega) 3′ below the luciferase reporter element. Subsequently, an ABCA1 promoter fragment, 3.2 kb in size and amplified from human genomic DNA (#6550-1, Clontech) by the polymerase chain reaction, was cloned in 5′ above the luciferase reporter element. The reporter plasmid produced in this way was called pGL3BN-ABCA1P. Luciferase expression in this plasmid is controlled by the ABCA1 promoter. Cloning and sequencing of the construct took place in analogy to the description in Sambrook J et al. (Molecular cloning, Cold Spring Harbor Laboratory Press, 1989). For stable transfection into THP1 cells, firstly pGL3BN-ABCA1P was linearized with a restriction endonuclease and then introduced into the THP1 cells as stated in Ausubel, F. M. et al. (Current protocols in molecular biology, Vol. 1-3, John Wiley & Sons, Inc., 1995).
The activity of ABCA1 expression activators is determined in a 3-day test which is described below:
The ABCA1 reporter cell line comprises suspension cells. These are cultured until the concentration is 0.5×10^6 cells/ml in RPMI medium (#52400-025, Invitrogen) which is mixed with the following additions: 10% FCS (fetal calf serum; #16000-044, invitrogen), 0.5 mg/ml Geneticin (#10131-019, invitrogen) and 1% penicillin-streptomycin solution (#15140-122, invitrogen). The culturing takes place in standard cell culture flasks (#353112, Becton Dickinson) in a cell culture incubator at 37° C. in the presence of 5% CO2.
For the ABCA1 promoter test, the suspension cells are centrifuged at 1200 rpm in 50 ml tubes. The supernatant is aspirated off, and the pellet is resuspended in 15 ml of RPMI medium and counted in a cell counter. After dilution to 175 000 cells/ml, 0.1 μg/ml PMA (phorbol 12-myristate 13-acetate, #8139-5MG, Sigma) is added in order to induce differentiation of the monocytic THP1 suspension cells into adherent macrophages. 35 000 cells in each well are seeded in a 96-well microtiter plate with clear plastic base (#3610, Corning Costar). The plates are incubated in a cell culture incubator at 37° C. and 5% CO2 for 24 h.
The ABCA1 expression activators to be tested are dissolved in a concentration of 10 mM in DMSO. This stock solution is diluted in the RPMI medium (mixed with 0.1 μg/ml PMA) described above. Test substances are tested in 11 different concentrations in the range from […] to 330 pM. The medium of the ABCA1 reporter cell line seeded on day 1 is completely removed by aspiration and the diluted test substances are immediately added to the cells. The dilution and addition of the substances takes place with a pipetting robot (Beckman FX). The final volume of the test substances diluted in medium is 100 μl per well of a 96-well microtiter plate. The DMSO concentration in the test is less than 0.1% v/v in order to avoid cytotoxic effects of the solvent.
The test plates are incubated in an incubator at 37° C. and 5% CO2 for 24 h.
The ABCA1 reporter cells treated with the test substances are removed from the incubator and the medium is aspirated off. […]
For the compound `Cc1ccc(N2CCN(C(=O)[C@@H]3CN(S(=O)(=O)c4cc(Br)c(Br)s4)C[C@H]3c3ccccc3)CC2)c(C)c1` (racemic) [Example 37, [1-(4,5-Dibromothiophene-2-sulfonyl)-3,4-trans-4-phenylpyrrolidin-3-yl]-[4-(2,4-dimethylphenyl)piperazin-1-yl]methanone], the EC50 was determined as 2.57 µM.

For the compound `Cc1ccc(N2CCN(C(=O)[C@@H]3CN(S(=O)(=O)c4cccs4)C[C@H]3c3ccccc3)CC2)cc1C` (racemic) [Example 42, [4-(3,4-Dimethylphenyl)piperazin-1-yl]-[3,4-trans-4-phenyl-1-(thiophene-2-sulfonyl)pyrrolidin-3-yl)methanone], the EC50 is 18.8 µM.

For the compound `COc1ccccc1N1CCN(C(=O)[C@@H]2CN(S(=O)(=O)c3ccc(Cl)s3)C[C@H]2c2ccccc2)CC1` (racemic) [Example 26, [1-(5-Chlorothiophene-2-sulfonyl)-3,4-trans-4-phenylpyrrolidin-3-yl]-[4-(2-methoxyphenyl)piperazin-1-yl]methanone], the EC50 is 2.94 µM.

As to `COc1ccc(N2CCN(C(=O)[C@@H]3CN(S(=O)(=O)c4cc(Cl)c(Cl)s4)C[C@H]3c3ccccc3)CC2)cc1` (racemic) [Example 61, [1-(4,5-Dichlorothiophene-2-sulfonyl)-3,4-trans-4-phenylpyrrolidin-3-yl]-[4-(4-methoxyphenyl)piperazin-1-yl]methanone], the EC50 amounted to 2.61 µM.

For the compound `O=C([C@@H]1CN(S(=O)(=O)c2cc(Cl)c(Cl)s2)C[C@H]1c1ccccc1)N1CCN(c2cccc(C(F)(F)F)c2)CC1` (racemic) [Example 33, [1-(4,5-Dichlorothiophene-2-sulfonyl)-3,4-trans-4-phenylpyrrolidin-3-yl]-[4-(3-trifluoromethylphenyl)piperazin-1-yl]methanone], the EC50 stood at 6.59 µM.

Take `Cc1ccc(C)c(N2CCN(C(=O)[C@@H]3CN(S(=O)(=O)c4sc5ccc(Cl)cc5c4C)C[C@H]3c3ccccc3)CC2)c1` (racemic) [Example 51, [1-(5-Chloro-3-methylbenzo[b]thiophene-2-sulfonyl)-3,4-trans-4-phenyl-pyrrolidin-3-yl]-[4-(2,5-dimethylphenyl)piperazin-1-yl]methanone]: the EC50 was 2.77 µM.

`COc1ccccc1N1CCN(C(=O)[C@@H]2CN(S(=O)(=O)c3cc(Br)c(Br)s3)C[C@H]2c2ccccc2)CC1` (racemic) [Example 25, [1-(4,5-Dibromothiophene-2-sulfonyl)-3,4-trans-4-phenylpyrrolidin-3-yl]-[4-(2-methoxyphenyl)piperazin-1-yl]methanone]: the EC50 turned out to be 3.81 µM.

Turning to `Cc1ccc(C)c(N2CCN(C(=O)[C@@H]3CN(S(=O)(=O)c4c(C)noc4C)C[C@H]3c3ccsc3)CC2)c1` [Example 111, [1-(3,5-Dimethylisoxazole-4-sulfonyl)-3,4-trans-4-thiophen-3-ylpyrrolidin-3-yl]-[4-(2,5-dimethylphenyl)piperazin-1-yl]methanone trifluoroacetate], the EC50 stood at 0.867 µM.

As to `Cc1ccc(N2CCN(C(=O)[C@@H]3CN(S(=O)(=O)c4cc(Cl)c(Cl)s4)C[C@H]3c3ccccc3)CC2)c(C)c1` (racemic) [Example 39], the EC50 stood at 3.73 µM.

In the case of `COc1cccc(S(=O)(=O)N2C[C@@H](C(=O)N3CCN(c4cc(OC)ccc4OC)CC3)[C@H](c3ccccc3)C2)c1` [Example 82, [4-(2,5-Dimethoxyphenyl)piperazin-1-yl]-[1-(3-methoxybenzenesulfonyl)-3,4-trans-4-phenylpyrrolidin-3-yl]methanone trifluoroacetate], the EC50 turned out to be 1.49 µM.

With `COc1cccc(S(=O)(=O)N2C[C@@H](C(=O)N3CCN(c4cc(C)ccc4C)CC3)[C@H](c3ccoc3)C2)c1` [Example 114, [4-(2,5-Dimethylphenyl)piperazin-1-yl]-[3,4-trans-4-furan-3-yl-1-(3-methoxybenzenesulfonyl)pyrrolidin-3-yl]methanone trifluoroacetate], the EC50 came out at 2.14 µM.

Regarding `Cc1cccc(N2CCN(C(=O)[C@@H]3CN(S(=O)(=O)c4cc(Br)c(Br)s4)C[C@H]3c3ccccc3)CC2)c1C` (racemic) [Example 53, [1-(4,5-Dibromothiophene-2-sulfonyl)-3,4-trans-4-phenylpyrrolidin-3-yl]-[4-(2,3-dimethylphenyl)piperazin-1-yl]methanone], the EC50 is 5.76 µM.

As for `Cc1ccc(C)c(N2CCN(C(=O)[C@@H]3CN(S(=O)(=O)c4cccnc4)C[C@H]3c3ccccc3)CC2)c1` [Example 72, [4-(2,5-Dimethylphenyl)piperazin-1-yl]-[3,4-trans-4-phenyl-1-(pyridine-3-sulfonyl)pyrrolidin-3-yl]methanone trifluoroacetate], the EC50 worked out at 0.241 µM.

For the compound `O=C([C@@H]1CN(S(=O)(=O)c2cccs2)C[C@H]1c1ccccc1)N1CCN(c2cccc(C(F)(F)F)c2)CC1` (racemic) [Example 30, [3,4-trans-4-Phenyl-1-(thiophene-2-sulfonyl)pyrrolidin-3-yl]-[4-(3-trifluoromethylphenyl)piperazin-1-yl]methanone], the EC50 was 3.22 µM.

Take `COc1ccccc1N1CCN(C(=O)[C@@H]2CN(S(=O)(=O)c3cccs3)C[C@H]2c2ccccc2)CC1` (racemic) [Example 24, [4-(2-Methoxyphenyl)piperazin-1-yl]-[3,4-trans-4-phenyl-1-(thiophene-2-sulfonyl)pyrrolidin-3-yl]methanone]: the EC50 was found to be 15 µM.

On to `Cc1ccc(C)c(N2CCN(C(=O)[C@@H]3CN(S(=O)(=O)c4c(C)noc4C)C[C@H]3c3c(C)cccc3C)CC2)c1` [Example 106, [1-(3,5-Dimethylisoxazole-4-sulfonyl)-3,4-trans-4-(2,6-dimethylphenyl)pyrrolidin-3-yl]-[4-(2,5-dimethylphenyl)piperazin-1-yl]methanone trifluoroacetate], for which the EC50 was 0.372 µM.

For the compound `COc1cccc(S(=O)(=O)N2C[C@@H](C)[C@H](C(=O)N3CCN(c4cc(C)ccc4C)CC3)C2)c1` [Example 91, [3,4-trans-4-(2,5-Dimethylphenyl)piperazin-1-yl]-[1-(3-methoxybenzene-sulfonyl)-4-methylpyrrolidin-3-yl]methanone trifluoroacetate], the EC50 worked out at 2.34 µM.

Consider `Cc1ccc([C@@H]2CN(S(=O)(=O)c3c(C)noc3C)C[C@H]2C(=O)N2CCN(c3cc(C)ccc3C)CC2)cc1` [Example 1, [1-(3,5-Dimethylisoxazole-4-sulfonyl)-3,4-trans-4-p-tolylpyrrolidin-3-yl]-[4-(2,5-dimethylphenyl)piperazin-1-yl]methanone trifluoroacetate], for which the EC50 was found to be 2.84 µM.

Regarding `O=C([C@@H]1CN(S(=O)(=O)c2cc(Cl)c(Cl)s2)C[C@H]1c1ccccc1)N1CCN(c2ccccc2)CC1` [Example 21, [1-(4,5-Dichlorothiophene-2-sulfonyl)-3,4-trans-4-phenylpyrrolidin-3-yl]-(4-phenylpiperazin-1-yl)methanone], the EC50 turned out to be 4.62 µM.

Take `COc1ccccc1N1CCN(C(=O)[C@@H]2CN(S(=O)(=O)c3sc4ccc(Cl)cc4c3C)C[C@H]2c2ccccc2)CC1` (racemic) [Example 29, [1-(5-Chloro-3-methylbenzo[b]thiophene-2-sulfonyl)-3,4-trans-4-phenyl-pyrrolidin-3-yl]-[4-(2-methoxyphenyl)piperazin-1-yl]methanone]: the EC50 turned out to be 5.61 µM.
